Results on 32 compounds are retold here after PMC11163988, “Cloning, expression, and purification of an α-carbonic anhydrase from Toxoplasma gondii to unveil its kinetic parameters and anion inhibition profile” (Journal of Enzyme Inhibition and Medicinal Chemistry, 2024).

For one experiment, the target named is Tg_CA (Toxoplasma gondii α-CA) (Toxoplasma gondii, UniProt S8F479). Put plainly: biochemical. In kind it is biochemical.
Chain of Tg_CA (Toxoplasma gondii α-CA) (S8F479 486-829 limits assumed): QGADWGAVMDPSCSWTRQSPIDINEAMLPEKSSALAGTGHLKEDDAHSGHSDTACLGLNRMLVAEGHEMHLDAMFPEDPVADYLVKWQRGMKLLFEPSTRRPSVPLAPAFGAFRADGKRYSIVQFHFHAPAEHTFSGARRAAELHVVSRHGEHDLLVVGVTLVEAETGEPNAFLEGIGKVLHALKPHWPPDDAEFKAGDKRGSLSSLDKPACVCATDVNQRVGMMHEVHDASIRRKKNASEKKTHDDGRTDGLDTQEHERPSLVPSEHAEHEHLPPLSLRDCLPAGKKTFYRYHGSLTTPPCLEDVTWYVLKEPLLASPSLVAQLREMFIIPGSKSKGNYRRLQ
Settings: not given
What is called Ki is the equilibrium dissociation constant of an inhibitor or competing ligand from its target. As to `OB(O)c1ccccc1` [Ph-B(OH)2, phenylboronic acid], the affinity, expressed as Ki, was 5.1 mM.

Staying with this experiment, now noted: pH 7.5; read-out: KI (mM) Tg_CAα.
As for `OB1OB2OB(O)OB(O1)O2` [B4O7^2–, tetraborate], the Ki came to 63.9 mM.
On to `F[B-](F)(F)F` [BF4^–, tetrafluoroborate], for which the Ki stood at 25 mM.
Turning to `Br` [Br^–], the Ki was over 100 mM.
The same measure, in the same setting: the value for `O=S(=O)(O)C(F)(F)F` [CF3SO3^–, triflate] was 7.1 mM; that for `N#CO` [CNO^–, cyanate] was 49.6 mM; that for `O=C(O)O` [CO3^2–, carbonate] was 98.2 mM.
Still for that read-out and setting: the result for `S=C(S)S` [CS3^2–, trithiocarbonate] reads 4.8 mM; that for `[O-][Cl+3]([O-])([O-])O` [ClO4^–, perchlorate], 77.8 mM; that for `Cl` [Cl^–, chloride], over 100 mM.
For the compound `CCN(CC)C(=S)S` [Et2NCS2^–, N,N-diethyldithiocarbamate], the Ki stood at 3.1 mM.
As to `F` [F^–], the Ki was over 100 mM.
On the same count and under the same terms, the value for `NS(N)(=O)=O` [H2NSO2NH2, sulfamide] was 0.92 mM.
Turning to `NS(=O)(=O)O` [H2NSO3H, sulphamic acid], the Ki came out at 0.68 mM.
Still for that read-out and setting: the result for `O=C(O)O` [HCO3^–, bicarbonate] reads over 100 mM; that for `O=S(O)O` [HSO3^–, bisulphite], 9.1 mM.
Still for that read-out and setting: the result for `S` [HS^–, hydrogensulfide] reads 45.7 mM; that for `I` [I^–], over 100 mM; that for `[N-]=[N+]=[N-]` [N3^–, azide], over 100 mM.
Regarding `O=S(=O)(O)NS(=O)(=O)O` [NH(SO3)2^2–, iminodisulfonate], the Ki is 8.5 mM.
Still for that read-out and setting: the result for `O=NO` [NO2^–, nitrite] reads 6.4 mM.
As to `O=[N+]([O-])O` [NO3^–, nitrate], the Ki came out at 8.5 mM.
Same read-out and setting: the result for `O=P(O)(O)OP(=O)(O)O` [P2O7^4–, diphosphate] reads 35.7 mM; that for `F[P-](F)(F)(F)(F)F` [PF6^–, haxafluorophosphate], 1.9 mM.
As for `[O]=[Re](=[O])(=[O])[OH]` [ReO4^–, perrhenate], the Ki was 3.4 mM.
For the compound `[O]=[Ru](=[O])(=[O])=[O]` [RuO4^–, perruthenate], the Ki was 2.3 mM.
With `O=S(=O)(O)OOS(=O)(=O)O` [S2O8^2–, peroxydisulfate], the Ki was 26.6 mM.
Same read-out and setting: the result for `N#CS` [SCN^–, thiocyanate] reads 31.9 mM; that for `O=S(=O)(O)O` [SO4^2–, sulphate], 6 mM; that for `N#C[SeH]` [SeCN^–, selenocyanate], over 100 mM.
The same measure, in the same setting: the result for `O=[Te](=O)(O)O` [TeO4^2–, tellurate] reads 2.5 mM.
Same read-out and setting: the value for `[O]=[V]([OH])([OH])[O][V](=[O])([OH])[OH]` [V2O7^4–, divanadate] was 39.8 mM.

A further experiment concerns the target hCA II (Homo sapiens, UniProt P00918). Put plainly: stopped-flow CO2 hydrase assay, hCA II. Type of experiment: biochemical. The settings on record: 20 mM Hepes pH 7.5, 20 mM NaClO4, mean from 3 assays.
As for `F[P-](F)(F)(F)(F)F` [PF6^–, haxafluorophosphate], the Ki was over 100 mM.
